The IC50 is the midpoint of a concentration-inhibition curve. The term ED50 denotes the midpoint of the dose-response relation.

For 7 compounds, IC50 and ED50 results are on record in ChEMBL document CHEMBL1143375 (Bioorg Med Chem Lett, 2009).

SMILES strings stand for the structures.

Assay [1] concerns the target T1, Prostaglandin G/H synthase 1 (Ovis aries, UniProt P05979).
T1 sequence (P05979 whole entry): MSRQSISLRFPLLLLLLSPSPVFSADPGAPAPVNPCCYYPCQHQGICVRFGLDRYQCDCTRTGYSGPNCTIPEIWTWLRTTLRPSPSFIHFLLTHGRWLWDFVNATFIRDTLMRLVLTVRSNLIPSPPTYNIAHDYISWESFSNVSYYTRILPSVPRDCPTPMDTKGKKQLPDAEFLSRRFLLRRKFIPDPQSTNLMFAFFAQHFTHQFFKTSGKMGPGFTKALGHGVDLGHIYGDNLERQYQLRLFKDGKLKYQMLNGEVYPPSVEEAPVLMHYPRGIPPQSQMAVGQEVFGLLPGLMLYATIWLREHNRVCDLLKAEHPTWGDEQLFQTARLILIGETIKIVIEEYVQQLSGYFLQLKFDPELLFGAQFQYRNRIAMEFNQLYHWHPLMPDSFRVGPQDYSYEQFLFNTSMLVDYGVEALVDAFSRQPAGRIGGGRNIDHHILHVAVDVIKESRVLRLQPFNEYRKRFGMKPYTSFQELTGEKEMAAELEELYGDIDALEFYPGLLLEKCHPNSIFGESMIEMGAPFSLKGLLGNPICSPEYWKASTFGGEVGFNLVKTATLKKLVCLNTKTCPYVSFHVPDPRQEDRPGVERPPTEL
Description: Inhibition of ovine COX1 by enzyme immuno assay

The subject of assay [2] is Rattus norvegicus. The assay is described as follows: Antiinflammatory activity in orally dosed rat assessed as inhibition of carrageenan-induced paw edema after 3 hrs. Type of assay: functional. The settings on record: po.
Assay [3] in a line: Inhibition of potato LOX5. The arrangement: species or system Solanum tuberosum.
Assay [4] has as its target T2, Prostaglandin G/H synthase 2 (Homo sapiens, UniProt P35354).
T2 sequence (P35354 whole entry): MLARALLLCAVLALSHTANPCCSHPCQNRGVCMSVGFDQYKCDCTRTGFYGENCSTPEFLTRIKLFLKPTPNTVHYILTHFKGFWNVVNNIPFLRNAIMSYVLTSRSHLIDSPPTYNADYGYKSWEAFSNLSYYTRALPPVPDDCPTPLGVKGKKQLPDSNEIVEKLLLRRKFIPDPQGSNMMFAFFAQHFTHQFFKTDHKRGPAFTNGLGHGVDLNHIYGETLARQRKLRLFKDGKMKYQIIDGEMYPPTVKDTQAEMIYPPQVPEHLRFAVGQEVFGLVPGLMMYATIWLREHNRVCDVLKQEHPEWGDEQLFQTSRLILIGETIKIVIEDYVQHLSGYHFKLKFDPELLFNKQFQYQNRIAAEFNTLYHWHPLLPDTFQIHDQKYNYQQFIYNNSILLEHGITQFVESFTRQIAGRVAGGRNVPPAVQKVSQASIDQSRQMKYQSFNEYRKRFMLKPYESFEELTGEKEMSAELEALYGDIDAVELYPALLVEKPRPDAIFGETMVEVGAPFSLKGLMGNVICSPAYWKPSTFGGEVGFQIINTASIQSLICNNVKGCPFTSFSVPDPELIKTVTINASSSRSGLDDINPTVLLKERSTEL
The assay is described as follows: Inhibition of human recombinant COX2 by enzyme immuno assay.

On to `NS(=O)(=O)c1ccc(C#Cc2ccc(=O)n(C(F)F)c2)cc1`, for which the results for the IC50 in assay [1], in assay [3] and in assay [4] were 5.2 µM, 3.5 µM and 6 µM, respectively. In assay [2], the ED50 stood at 86.5 mg/kg.
For `CS(=O)(=O)c1ccccc1C#Cc1ccc(=O)n(C(F)F)c1`, in that order: above 100 µM, 3.4 µM, 9.4 µM and above 100 mg/kg.
For the compound `CC(C)Cc1ccc(C(C)C(=O)O)cc1` (centres undefined) [IBUPROFEN], the ED50 in assay [2] was 67.4 mg/kg.
Still for that read-out and setting: then `CC(=O)Oc1ccccc1C(=O)O` [ASPIRIN], with 129 mg/kg.
With `CS(=O)(=O)c1ccc(C#Cc2ccc(=O)n(C(F)F)c2)cc1`, the IC50 in assay [1] is 14.1 µM; in assay [3] it was 3.3 µM; in assay [4] it was 5.1 µM. Moreover, in assay [2], the ED50 was 68.5 mg/kg.
For `CS(=O)(=O)c1cccc(C#Cc2ccc(=O)n(C(F)F)c2)c1`, in that order: 32.4 µM, 3.2 µM, 3.7 µM and 66.1 mg/kg.
Consider `O=C(O)/C=C/c1ccc(O)c(O)c1` [CAFFEIC ACID], for which the IC50 in assay [3] amounted to 4 µM.
